Experiments:
AURKA = AURKA (Homo sapiens, UniProt O14965); format: cell-based; settings: HEK-293T; 1 μM inhibitor, HEK293T cells
Experimental: (§1) For plate preparation, a transfection mix was prepared in white 384-well small-volume plates (Greiner, cat. no. 784075) by preplating 3 μL of 20 μL/mL FuGene HD (Promega, cat. no. E2311), diluted in an Opti-MEM medium (Gibco, cat. no. 11058-021). One μL of DNA from both DNA vector source plates of the K192 kit was added using an Echo 550 acoustic dispenser (Beckman Coulter). The mix was incubated for 30 min, and 6 μL of HEK293T cells in an Opti-MEM medium was added. The proteins were allowed to express for 20 h. After expression, Tracer K10 was added using the concentrations recommended in the K192 technical manual and a 1 μM inhibitor was added to every second well. […] Five μL of substrate solution was added to every well, and filtered luminescence was measured on a PHERAstar plate reader (BMG Labtech) equipped with a luminescence filter pair (450 nm BP filter (donor) and a 610 nm LP filter (acceptor)). For every kinase, occupancy was calculated and plotted using GraphPad Prism 10 (Table S5).

CDK16 = CDK16 (Homo sapiens, UniProt Q00536); format: cell-based; settings: HEK-293T; 1 μM inhibitor, HEK293T cells
Experimental: as §1

CDK17 = CDK17 (Homo sapiens, UniProt Q00537); format: cell-based; settings: HEK-293T; 1 μM inhibitor, HEK293T cells
Experimental: as §1

MAP3K3 = MAP3K3 (Homo sapiens, UniProt Q99759); format: cell-based; settings: HEK-293T; 1 μM inhibitor, HEK293T cells
Experimental: as §1

NEK5 = NEK5 (Homo sapiens, UniProt Q6P3R8); format: cell-based; settings: HEK-293T; 1 μM inhibitor, HEK293T cells
Experimental: as §1

[1] = target: 468 kinases including some pathogenic mutants (Homo sapiens, UniProt O14578); experiment: biochemical; format: binding; settings: CIT (Entrez CIT), 100 nM; read-out: Percent Control
[2] = target: 468 kinases including some pathogenic mutants (Homo sapiens, UniProt P00519, F317I); experiment: biochemical; format: binding; settings: read-out: Percent Control
[3] = target: 468 kinases including some pathogenic mutants (Homo sapiens, UniProt P08581, M1250T); experiment: biochemical; format: binding; settings: read-out: Percent Control
[4] = target: 468 kinases including some pathogenic mutants (Homo sapiens, UniProt P42336); experiment: biochemical; format: binding; settings: PIK3CA (Entrez PIK3CA), 100 nM; read-out: Percent Control
[5] = target: 468 kinases including some pathogenic mutants (Homo sapiens, UniProt P48729); experiment: biochemical; format: binding; settings: CSNK1A1 (Entrez CSNK1A1), 100 nM; read-out: Percent Control
[6] = target: 468 kinases including some pathogenic mutants (Homo sapiens, UniProt P54762); experiment: biochemical; format: binding; settings: EPHB1 (Entrez EPHB1), 100 nM; read-out: Percent Control
[7] = target: 468 kinases including some pathogenic mutants (Homo sapiens, UniProt Q04912); experiment: biochemical; format: binding; settings: MST1R (Entrez MST1R), 100 nM; read-out: Percent Control
[8] = target: 468 kinases including some pathogenic mutants (Homo sapiens, UniProt Q12851); experiment: biochemical; format: binding; settings: MAP4K2 (Entrez MAP4K2), 100 nM; read-out: Percent Control
[9] = target: 468 kinases including some pathogenic mutants (Homo sapiens, UniProt Q13177); experiment: biochemical; format: binding; settings: PAK2 (Entrez PAK2), 100 nM; read-out: Percent Control
[10] = target: 468 kinases including some pathogenic mutants (Homo sapiens, UniProt Q16288); experiment: biochemical; format: binding; settings: TRKC (Entrez NTRK3), 100 nM; read-out: Percent Control
[11] = target: 468 kinases including some pathogenic mutants (Homo sapiens, UniProt Q16566); experiment: biochemical; format: binding; settings: CAMK4 (Entrez CAMK4), 100 nM; read-out: Percent Control
[12] = target: 468 kinases including some pathogenic mutants (Homo sapiens, UniProt Q96PY6); experiment: biochemical; format: binding; settings: NEK1 (Entrez NEK1), 1000 nM; read-out: Percent Control
[13] = target: 468 kinases including some pathogenic mutants (Homo sapiens, UniProt Q99558); experiment: biochemical; format: binding; settings: NIK (Entrez MAP3K14), 1000 nM; read-out: Percent Control
[14] = target: 468 kinases including some pathogenic mutants (Homo sapiens, UniProt Q9H2G2); experiment: biochemical; format: binding; settings: SLK (Entrez SLK), 100 nM; read-out: Percent Control
[15] = target: 468 kinases including some pathogenic mutants (Homo sapiens, UniProt Q9NWZ3); experiment: biochemical; format: binding; settings: IRAK4 (Entrez IRAK4), 1000 nM; read-out: Percent Control
[16] = target: 468 kinases including some pathogenic mutants (Homo sapiens, UniProt Q9UK32); experiment: biochemical; format: binding; settings: read-out: Percent Control
[17] = target: 468 kinases including some pathogenic mutants (Homo sapiens, UniProt Q9UPE1); experiment: biochemical; format: binding; settings: SRPK3 (Entrez SRPK3), 1000 nM; read-out: Percent Control
[18] = target: 468 kinases including some pathogenic mutants (Homo sapiens, UniProt Q9Y2H9); experiment: biochemical; format: binding; settings: MAST1 (Entrez MAST1), 100 nM; read-out: Percent Control
[19] = target: 468 kinases including some pathogenic mutants (Homo sapiens, UniProt Q9Y6R4); experiment: biochemical; format: binding; settings: MAP3K4 (Entrez MAP3K4), 100 nM; read-out: Percent Control
FGFR3(G697C) = FGFR3(G697C) (Homo sapiens, UniProt P22607, G697C); experiment: biochemical; format: binding; settings: read-out: Percent Control
[20] = target: ABL1(T315I)-phosphorylated (Homo sapiens, UniProt P00519, T315I); experiment: biochemical; format: binding; settings: compound concentration 100 nM; Entrez ABL1; read-out: Percent Control

Chain of 468 kinases including some pathogenic mutants (Homo sapiens, UniProt Q9UK32) (Q9UK32 whole entry, change not shown): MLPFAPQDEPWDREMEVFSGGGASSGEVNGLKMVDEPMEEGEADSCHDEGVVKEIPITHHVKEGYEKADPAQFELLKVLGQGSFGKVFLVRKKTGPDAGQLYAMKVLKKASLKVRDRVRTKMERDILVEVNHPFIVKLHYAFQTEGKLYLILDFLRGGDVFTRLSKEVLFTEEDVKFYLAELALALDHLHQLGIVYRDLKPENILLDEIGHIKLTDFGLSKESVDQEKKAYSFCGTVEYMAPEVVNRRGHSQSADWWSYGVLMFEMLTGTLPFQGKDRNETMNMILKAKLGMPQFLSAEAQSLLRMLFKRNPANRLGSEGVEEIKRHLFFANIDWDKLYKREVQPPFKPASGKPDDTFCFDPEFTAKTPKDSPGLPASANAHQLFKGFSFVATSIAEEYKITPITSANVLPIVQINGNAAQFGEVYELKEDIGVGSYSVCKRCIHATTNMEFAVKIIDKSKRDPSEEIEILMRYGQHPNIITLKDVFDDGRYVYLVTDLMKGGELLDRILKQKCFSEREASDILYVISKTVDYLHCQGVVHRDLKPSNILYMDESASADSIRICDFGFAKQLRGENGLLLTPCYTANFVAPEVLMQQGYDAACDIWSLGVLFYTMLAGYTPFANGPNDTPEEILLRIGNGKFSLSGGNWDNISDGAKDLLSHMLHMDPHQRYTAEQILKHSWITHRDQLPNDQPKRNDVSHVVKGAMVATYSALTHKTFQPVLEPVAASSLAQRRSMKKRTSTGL
Chain of NEK5 (Q6P3R8 whole entry): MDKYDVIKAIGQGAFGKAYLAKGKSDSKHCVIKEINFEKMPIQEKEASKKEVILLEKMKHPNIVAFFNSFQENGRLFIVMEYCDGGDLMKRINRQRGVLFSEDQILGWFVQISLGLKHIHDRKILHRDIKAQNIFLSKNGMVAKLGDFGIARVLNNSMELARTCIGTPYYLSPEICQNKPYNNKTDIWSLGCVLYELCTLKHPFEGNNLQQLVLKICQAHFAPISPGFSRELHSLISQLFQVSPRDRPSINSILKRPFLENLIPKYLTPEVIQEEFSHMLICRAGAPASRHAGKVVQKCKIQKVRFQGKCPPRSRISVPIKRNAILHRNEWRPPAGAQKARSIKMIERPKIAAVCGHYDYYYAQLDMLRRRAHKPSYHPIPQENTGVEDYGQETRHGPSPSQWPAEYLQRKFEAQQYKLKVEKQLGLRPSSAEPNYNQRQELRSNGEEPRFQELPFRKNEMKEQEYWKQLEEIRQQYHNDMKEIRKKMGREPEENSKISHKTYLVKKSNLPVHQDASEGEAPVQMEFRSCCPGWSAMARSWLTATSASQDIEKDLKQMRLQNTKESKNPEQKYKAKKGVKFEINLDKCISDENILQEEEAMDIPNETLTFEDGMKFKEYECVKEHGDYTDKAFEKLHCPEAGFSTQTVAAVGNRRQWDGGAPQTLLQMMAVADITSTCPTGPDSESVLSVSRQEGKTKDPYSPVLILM
Chain of 468 kinases including some pathogenic mutants (Homo sapiens, UniProt Q99558) (Q99558 whole entry, change not shown): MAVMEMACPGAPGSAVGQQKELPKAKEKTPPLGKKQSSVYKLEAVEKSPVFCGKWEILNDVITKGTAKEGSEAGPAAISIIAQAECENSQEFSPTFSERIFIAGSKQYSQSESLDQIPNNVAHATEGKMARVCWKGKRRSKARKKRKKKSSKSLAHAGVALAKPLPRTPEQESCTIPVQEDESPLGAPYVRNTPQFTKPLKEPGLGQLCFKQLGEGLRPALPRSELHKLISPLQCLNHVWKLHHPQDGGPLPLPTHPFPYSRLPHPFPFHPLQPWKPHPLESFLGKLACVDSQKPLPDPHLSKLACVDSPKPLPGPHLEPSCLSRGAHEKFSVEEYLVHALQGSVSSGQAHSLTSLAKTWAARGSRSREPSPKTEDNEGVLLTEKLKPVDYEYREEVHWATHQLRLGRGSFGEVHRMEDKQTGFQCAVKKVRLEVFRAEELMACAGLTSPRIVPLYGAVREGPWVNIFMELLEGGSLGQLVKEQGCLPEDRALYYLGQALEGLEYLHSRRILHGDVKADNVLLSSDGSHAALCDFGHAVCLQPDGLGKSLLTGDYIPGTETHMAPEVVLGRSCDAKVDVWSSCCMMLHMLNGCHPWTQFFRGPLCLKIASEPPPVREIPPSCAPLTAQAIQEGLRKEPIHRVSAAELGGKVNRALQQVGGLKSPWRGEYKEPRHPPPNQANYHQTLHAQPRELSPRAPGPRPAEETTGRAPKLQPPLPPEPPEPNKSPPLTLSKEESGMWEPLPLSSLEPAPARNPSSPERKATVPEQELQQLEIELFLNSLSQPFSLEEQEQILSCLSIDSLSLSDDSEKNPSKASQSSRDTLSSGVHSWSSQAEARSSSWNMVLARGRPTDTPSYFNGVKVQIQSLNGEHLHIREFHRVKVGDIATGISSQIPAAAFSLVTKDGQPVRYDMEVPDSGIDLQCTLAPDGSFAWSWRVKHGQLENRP
Chain of 468 kinases including some pathogenic mutants (Homo sapiens, UniProt P54762) (P54762 18-984, change not shown): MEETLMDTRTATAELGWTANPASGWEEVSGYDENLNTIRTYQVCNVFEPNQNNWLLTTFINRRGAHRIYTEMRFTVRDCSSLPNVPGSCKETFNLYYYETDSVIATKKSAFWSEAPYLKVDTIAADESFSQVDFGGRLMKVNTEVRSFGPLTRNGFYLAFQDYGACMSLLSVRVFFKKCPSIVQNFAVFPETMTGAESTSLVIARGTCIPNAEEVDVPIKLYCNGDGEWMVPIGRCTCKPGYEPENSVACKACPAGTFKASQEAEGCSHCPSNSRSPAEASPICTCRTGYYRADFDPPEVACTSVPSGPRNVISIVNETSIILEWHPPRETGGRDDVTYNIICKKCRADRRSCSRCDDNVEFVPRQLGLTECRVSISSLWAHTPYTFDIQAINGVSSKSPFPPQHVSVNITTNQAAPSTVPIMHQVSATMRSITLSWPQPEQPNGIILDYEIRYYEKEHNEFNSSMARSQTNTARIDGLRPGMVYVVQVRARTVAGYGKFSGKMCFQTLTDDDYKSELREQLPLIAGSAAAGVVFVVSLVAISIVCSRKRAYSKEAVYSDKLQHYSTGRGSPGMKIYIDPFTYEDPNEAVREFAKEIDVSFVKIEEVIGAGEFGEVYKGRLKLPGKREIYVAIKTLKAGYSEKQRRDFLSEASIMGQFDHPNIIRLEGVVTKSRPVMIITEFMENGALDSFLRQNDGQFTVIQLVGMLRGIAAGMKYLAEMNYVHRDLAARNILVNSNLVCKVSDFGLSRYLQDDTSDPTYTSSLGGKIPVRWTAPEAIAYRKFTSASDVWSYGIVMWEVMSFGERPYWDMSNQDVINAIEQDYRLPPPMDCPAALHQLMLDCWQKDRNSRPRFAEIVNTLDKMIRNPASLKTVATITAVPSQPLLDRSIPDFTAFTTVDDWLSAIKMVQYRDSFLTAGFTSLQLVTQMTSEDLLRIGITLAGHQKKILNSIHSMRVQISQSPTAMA
Chain of 468 kinases including some pathogenic mutants (Homo sapiens, UniProt Q96PY6) (Q96PY6 whole entry, change not shown): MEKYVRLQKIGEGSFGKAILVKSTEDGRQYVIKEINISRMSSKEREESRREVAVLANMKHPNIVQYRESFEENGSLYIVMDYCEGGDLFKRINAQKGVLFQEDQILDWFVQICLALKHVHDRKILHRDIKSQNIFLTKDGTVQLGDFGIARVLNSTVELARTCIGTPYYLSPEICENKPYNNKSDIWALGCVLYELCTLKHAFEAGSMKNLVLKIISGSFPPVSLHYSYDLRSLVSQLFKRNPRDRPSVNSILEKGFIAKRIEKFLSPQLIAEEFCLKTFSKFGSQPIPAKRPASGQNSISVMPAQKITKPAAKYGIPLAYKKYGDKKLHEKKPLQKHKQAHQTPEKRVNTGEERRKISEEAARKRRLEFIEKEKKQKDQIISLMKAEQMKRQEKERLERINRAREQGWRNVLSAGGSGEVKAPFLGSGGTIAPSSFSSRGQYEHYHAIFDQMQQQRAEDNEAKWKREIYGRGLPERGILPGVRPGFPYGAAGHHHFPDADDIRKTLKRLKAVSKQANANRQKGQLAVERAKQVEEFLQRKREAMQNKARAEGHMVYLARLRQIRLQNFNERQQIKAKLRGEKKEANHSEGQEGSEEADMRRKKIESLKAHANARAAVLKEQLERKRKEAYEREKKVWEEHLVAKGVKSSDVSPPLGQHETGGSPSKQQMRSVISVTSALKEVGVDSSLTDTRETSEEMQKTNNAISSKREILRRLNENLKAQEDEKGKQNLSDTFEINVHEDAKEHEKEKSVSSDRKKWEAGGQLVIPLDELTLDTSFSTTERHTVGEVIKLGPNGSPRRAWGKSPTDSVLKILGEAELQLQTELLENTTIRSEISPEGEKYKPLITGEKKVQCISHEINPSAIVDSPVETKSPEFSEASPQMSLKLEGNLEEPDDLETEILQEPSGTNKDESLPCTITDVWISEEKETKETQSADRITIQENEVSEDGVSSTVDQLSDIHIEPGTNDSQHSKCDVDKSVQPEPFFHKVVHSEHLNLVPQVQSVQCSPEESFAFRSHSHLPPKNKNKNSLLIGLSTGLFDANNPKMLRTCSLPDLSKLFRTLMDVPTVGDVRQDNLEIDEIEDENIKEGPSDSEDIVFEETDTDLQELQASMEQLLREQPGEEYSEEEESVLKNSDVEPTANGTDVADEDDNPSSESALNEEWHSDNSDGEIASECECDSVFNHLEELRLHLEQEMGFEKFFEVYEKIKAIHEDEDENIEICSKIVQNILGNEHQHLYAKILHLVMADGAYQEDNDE
Chain of 468 kinases including some pathogenic mutants (Homo sapiens, UniProt P48729) (P48729 whole entry, change not shown): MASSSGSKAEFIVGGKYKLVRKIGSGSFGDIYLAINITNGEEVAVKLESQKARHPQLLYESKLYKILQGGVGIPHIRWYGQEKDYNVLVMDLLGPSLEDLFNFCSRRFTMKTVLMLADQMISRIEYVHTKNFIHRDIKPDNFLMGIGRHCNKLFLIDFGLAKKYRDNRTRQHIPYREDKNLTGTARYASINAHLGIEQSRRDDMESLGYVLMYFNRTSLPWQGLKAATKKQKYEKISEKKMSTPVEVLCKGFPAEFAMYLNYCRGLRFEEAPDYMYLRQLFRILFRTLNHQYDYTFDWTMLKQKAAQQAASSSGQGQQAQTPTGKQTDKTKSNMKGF

`CN1C(=O)[C@@H](N2CCc3c(nn(Cc4ccccc4)c3C(N)=O)C2=O)COc2cc(Cl)ccc21` [Compound 10, (S)-2-benzyl-6-(8-chloro-5-methyl-4-oxo-2,3,4,5-tetrahydrobenzo[b][1,4]oxazepin-3-yl)-7-oxo-4,5,6,7-tetrahydro-2H-pyrazolo[3,4-c]pyridine-3-carboxamide] gave a receptor occupancy at 1 µM (AURKA) of -7.12%, a receptor occupancy at 1 µM (CDK16) of -2.19% and a receptor occupancy at 1 µM (CDK17) of 4.13%. It also gave a receptor occupancy at 1 µM (MAP3K3) of 5.83%, a receptor occupancy at 1 µM (NEK5) of -1.37% and a remaining activity at 0.1 µM [1] of 95%. The remaining activity at 0.1 µM [2] was 87%, the remaining activity at 0.1 µM [3] was 80% and the remaining activity at 0.1 µM [4] was 71%. The remaining activity at 0.1 µM [5] was 73%, the remaining activity at 0.1 µM [6] was 95% and the remaining activity at 0.1 µM [7] was 82%. The remaining activity at 0.1 µM [8] was 70%, the remaining activity at 0.1 µM [9] was 88% and the remaining activity at 0.1 µM [10] was 79%. The remaining activity at 0.1 µM [11] was 76%, the remaining activity at 1 µM [12] was 100% and the remaining activity at 1 µM [13] was 100%. The remaining activity at 0.1 µM [14] was 89%, the remaining activity at 1 µM [15] was 100% and the remaining activity at 1 µM ([16]; RSK4(Kin.Dom.1-N-terminal) (Entrez RPS6KA6), 1000 nM) was 100%. It also gave a remaining activity at 0.1 µM ([16]; RSK4(Kin.Dom.2-C-terminal) (Entrez RPS6KA6), 100 nM) of 90%, a remaining activity at 1 µM [17] of 100% and a remaining activity at 0.1 µM [18] of 67%. For the same molecule, the remaining activity at 0.1 µM [19] was 79%, the remaining activity at 1 µM (FGFR3(G697C)) was 100% and the remaining activity at 0.1 µM [20] was 72%.
